Data on 26 compounds can be found in ChEMBL document CHEMBL1201862, “PubChem BioAssay data set” (2004).

In test [1] the target is Cytochrome P450 2C19 (Homo sapiens, UniProt P33261). Nature of the test: Cytochrome panel assay with activity outcomes. Panel member name: p450-cyp2c19 Compounds with AC50 equal or less than 10 uM are considered active. It counts as functional.
Test [2] addresses T1, Cytochrome P450 1A2 (Homo sapiens, UniProt P05177).
T1 sequence (P05177 whole entry): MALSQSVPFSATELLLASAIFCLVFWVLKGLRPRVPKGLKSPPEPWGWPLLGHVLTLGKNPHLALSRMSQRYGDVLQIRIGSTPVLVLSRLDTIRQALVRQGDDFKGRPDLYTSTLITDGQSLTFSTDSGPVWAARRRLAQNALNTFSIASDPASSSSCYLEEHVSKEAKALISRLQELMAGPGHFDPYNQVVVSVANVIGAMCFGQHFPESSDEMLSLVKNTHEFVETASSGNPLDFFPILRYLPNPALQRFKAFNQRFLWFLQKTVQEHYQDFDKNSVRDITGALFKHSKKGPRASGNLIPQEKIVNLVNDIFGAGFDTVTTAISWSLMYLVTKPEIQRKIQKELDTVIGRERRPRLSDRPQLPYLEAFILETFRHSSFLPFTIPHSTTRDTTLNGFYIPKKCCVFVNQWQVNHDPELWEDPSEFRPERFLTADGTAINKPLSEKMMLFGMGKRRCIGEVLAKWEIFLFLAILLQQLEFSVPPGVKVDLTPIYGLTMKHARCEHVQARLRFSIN

The target of test [3] is T2, Replicative DNA helicase DnaB (Mycobacterium tuberculosis, UniProt P9WMR3).
T2 sequence (P9WMR3 whole entry): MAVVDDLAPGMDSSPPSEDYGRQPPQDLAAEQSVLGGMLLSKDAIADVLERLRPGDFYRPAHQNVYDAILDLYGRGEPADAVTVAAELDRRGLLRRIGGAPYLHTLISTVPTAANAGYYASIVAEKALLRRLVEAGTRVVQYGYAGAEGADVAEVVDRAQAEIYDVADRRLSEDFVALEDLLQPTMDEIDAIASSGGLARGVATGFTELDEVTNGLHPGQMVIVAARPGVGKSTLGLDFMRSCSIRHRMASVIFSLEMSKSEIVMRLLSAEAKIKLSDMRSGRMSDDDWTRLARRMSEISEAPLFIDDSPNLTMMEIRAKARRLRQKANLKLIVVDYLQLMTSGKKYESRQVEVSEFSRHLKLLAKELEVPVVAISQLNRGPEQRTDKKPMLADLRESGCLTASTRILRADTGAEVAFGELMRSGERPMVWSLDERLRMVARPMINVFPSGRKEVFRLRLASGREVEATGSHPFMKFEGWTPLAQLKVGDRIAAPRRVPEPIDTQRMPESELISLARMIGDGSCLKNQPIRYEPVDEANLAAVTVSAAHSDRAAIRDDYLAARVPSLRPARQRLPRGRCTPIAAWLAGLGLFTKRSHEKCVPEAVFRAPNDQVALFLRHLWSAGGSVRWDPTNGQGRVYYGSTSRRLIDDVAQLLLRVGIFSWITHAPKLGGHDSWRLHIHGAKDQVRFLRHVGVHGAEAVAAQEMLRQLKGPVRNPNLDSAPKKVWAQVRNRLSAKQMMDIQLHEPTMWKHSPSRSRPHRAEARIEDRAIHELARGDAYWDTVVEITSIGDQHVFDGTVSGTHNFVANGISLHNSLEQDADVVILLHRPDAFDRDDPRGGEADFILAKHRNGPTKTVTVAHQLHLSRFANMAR
In words: DnaB intein splicing inhibitors, dose response, biochemical, cell-free fluorescence (AID 449749). The format is functional.

Test [4] deals with T3, Protein RecA (Mycobacterium tuberculosis, UniProt P9WHJ3).
T3 sequence (P9WHJ3 whole entry): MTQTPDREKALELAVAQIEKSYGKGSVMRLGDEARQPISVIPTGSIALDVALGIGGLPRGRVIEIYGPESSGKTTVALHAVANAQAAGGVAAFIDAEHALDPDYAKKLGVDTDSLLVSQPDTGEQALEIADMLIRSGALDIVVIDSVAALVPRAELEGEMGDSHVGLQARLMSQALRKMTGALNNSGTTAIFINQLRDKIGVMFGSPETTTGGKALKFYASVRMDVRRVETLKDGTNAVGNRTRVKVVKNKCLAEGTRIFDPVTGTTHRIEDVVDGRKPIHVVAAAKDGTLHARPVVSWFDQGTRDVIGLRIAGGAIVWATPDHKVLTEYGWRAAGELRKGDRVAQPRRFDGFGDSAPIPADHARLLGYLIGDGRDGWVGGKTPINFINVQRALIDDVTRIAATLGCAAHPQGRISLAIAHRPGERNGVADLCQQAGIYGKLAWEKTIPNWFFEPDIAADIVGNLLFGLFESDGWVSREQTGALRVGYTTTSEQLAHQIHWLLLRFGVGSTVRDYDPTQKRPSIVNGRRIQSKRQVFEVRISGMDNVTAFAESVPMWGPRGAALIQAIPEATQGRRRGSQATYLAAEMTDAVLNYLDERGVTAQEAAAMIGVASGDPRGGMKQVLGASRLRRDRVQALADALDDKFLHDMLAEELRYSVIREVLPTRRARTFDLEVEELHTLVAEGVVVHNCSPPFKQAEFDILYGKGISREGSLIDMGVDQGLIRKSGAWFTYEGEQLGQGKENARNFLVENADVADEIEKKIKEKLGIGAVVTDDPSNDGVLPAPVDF
In words: Fluorescence Cell-Free Homogeneous Dose Retest to Identify Inhibitors of RecA-Intein Splicing Activity. [Related pubchem assays (depositor defined):AID2097, AID2223, AID489010, AID492950]. The format is functional.

Test [5] in a line: alpha-synuclein stem-loop luciferase translation blockers – H4 neuroglioma cells, luminescence, confirmation (AID 1988). It counts as functional, cell-based.
Test [6] is described as follows: luciferase reporter signal suppression in cells – H4 neuroglioma cells, luminescence, dose response (AID 1990). It counts as functional, cell-based.
A short description of test [7]: Luminescence Cell-Based Dose Response HTS to Identify Inhibitors of 5'UTR Stem-Loop Driven Prion Protein mRNA Translation in H4 Neuroglioblastoma Cells. [Related pubchem assays: 1827 (Project Summary), 1813 (Primary HTS)]. The format is functional.
Test [8] deals with T4, Streptokinase A (Streptococcus pyogenes serotype M1, UniProt P10520).
T4 sequence (P10520 whole entry): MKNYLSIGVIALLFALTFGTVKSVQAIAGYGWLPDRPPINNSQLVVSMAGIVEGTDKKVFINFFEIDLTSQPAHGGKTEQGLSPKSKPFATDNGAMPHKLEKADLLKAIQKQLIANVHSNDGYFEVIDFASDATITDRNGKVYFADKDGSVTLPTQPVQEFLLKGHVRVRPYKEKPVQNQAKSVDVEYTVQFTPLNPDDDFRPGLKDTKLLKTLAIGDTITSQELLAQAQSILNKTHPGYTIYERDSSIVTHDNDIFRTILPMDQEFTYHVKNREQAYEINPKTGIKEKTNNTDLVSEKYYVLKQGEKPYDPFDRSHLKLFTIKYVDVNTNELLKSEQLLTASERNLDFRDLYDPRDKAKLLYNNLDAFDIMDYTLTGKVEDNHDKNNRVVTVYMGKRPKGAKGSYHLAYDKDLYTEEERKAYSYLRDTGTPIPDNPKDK
Nature of the test: viability-normalized secreted streptokinase activity reduction – plasminogen activation absorbance, OD405, dose response (AID 1914).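 Also: secreted streptokinase activity via plasminogen activation per viability signal from cell pellet.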 It counts as functional, Streptococcus pyogenes M1 GAS.

The subject of test [9] is Streptococcus. Nature of the test: GAS UMAA2166 growth inhibition – luminescence, BacTiterGlo, counter-screen for streptokinase expression inhibitor project, dose response (AID 1915).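 Also: potency for reduction of bacterial viability or growth.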 The format is functional, organism-based. For orientation: Counterscreens check selectivity or assay interference.
Test [10] addresses Cytochrome P450 2D6 (Homo sapiens, UniProt P10635).
The subject of test [11] is Streptococcus sp. 'group A'. Nature of the test: Streptococcus pyogenes SK(-)GAS viability under kanamycin – luminescence, BacTiterGlo, confirmation, counter-screen for streptokinase expression inhibitor project, dose response (AID 1900). The format is functional, organism-based.
Test [12] deals with Cytochrome P450 2C9 (Homo sapiens, UniProt P11712).
Sequence of Cytochrome P450 2C9 (P11712 whole entry): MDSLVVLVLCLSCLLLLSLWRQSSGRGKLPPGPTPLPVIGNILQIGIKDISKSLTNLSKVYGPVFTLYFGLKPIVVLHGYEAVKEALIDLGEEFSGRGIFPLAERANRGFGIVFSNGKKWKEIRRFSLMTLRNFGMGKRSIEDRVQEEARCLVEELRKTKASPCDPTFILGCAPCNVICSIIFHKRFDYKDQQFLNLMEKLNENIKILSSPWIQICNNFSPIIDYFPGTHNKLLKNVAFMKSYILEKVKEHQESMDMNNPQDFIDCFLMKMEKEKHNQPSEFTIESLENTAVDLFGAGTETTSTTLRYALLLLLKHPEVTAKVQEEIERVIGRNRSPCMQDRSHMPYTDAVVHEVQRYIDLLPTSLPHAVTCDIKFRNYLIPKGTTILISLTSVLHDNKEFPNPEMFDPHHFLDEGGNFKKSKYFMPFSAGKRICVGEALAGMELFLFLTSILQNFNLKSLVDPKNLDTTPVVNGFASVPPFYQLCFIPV
Test [13] can be described thus: viability of uninfected HEp-2 cells – cell-based, HTS, cytotoxicity control for RSV inhibitor project, dose response (AID 2410). It counts as functional. The following applies: human respiratory syncytial virus.

Activity calls are given as the source filed them.

In general, AC50 refers to the concentration giving half of the maximal activity seen. As usually defined, the EC50 is the concentration that produces a half-maximal response. As usually defined, the CC50 is the concentration that lowers cell viability or growth by half.

Sequence of Cytochrome P450 2C19 (P33261 whole entry): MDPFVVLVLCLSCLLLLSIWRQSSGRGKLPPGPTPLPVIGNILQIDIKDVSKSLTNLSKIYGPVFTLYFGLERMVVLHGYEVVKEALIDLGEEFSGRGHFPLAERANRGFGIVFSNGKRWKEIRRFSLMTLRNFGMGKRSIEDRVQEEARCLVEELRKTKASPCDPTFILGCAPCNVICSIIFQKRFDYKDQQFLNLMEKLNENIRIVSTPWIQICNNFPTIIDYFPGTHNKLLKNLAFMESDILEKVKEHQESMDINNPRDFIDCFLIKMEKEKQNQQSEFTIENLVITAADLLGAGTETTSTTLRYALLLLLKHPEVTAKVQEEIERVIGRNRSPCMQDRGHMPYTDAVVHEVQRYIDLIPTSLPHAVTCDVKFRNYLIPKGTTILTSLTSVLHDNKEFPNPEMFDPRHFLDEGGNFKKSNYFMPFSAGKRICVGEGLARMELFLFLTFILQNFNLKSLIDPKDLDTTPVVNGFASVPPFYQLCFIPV
Sequence of Cytochrome P450 2D6 (P10635 whole entry): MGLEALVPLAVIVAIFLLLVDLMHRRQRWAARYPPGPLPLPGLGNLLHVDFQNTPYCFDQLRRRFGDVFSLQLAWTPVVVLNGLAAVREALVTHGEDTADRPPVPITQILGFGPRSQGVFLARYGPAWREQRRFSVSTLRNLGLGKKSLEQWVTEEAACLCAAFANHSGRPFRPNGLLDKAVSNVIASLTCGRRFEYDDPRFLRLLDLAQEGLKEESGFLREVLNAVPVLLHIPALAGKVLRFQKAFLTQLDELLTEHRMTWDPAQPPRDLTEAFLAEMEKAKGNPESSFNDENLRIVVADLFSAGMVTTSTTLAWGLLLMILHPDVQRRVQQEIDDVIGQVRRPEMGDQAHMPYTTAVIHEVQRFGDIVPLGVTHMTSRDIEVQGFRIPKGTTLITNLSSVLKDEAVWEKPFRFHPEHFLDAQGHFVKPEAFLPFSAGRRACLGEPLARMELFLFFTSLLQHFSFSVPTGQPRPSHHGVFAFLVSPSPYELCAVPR

In the case of `CC/C(O)=C(\C#N)c1nnc2n1CCCCC2`, the AC50 is 1 µM (inconclusive) in test [1] and 14.1 µM (inconclusive) in [2].
`Cc1nn(-c2ccccc2)c2c1C1(C(=O)N(C(C)C)c3ccccc31)C(C#N)=C(N)O2` (stereo not given): the AC50 in test [3] was 4.5 µM (active). In test [4], the EC50 was 2.88 µM (active).
Take `Nc1c(C(=O)NCc2ccc3c(c2)OCO3)nnn1CC(=O)Nc1ccc(Br)cc1`: the EC50 in [5] is 18.3 µM (active); in [6], > 120 µM (not active); in test [7] it was > 120 µM (not active).
Consider `COc1ccc(Br)cc1S(=O)(=O)Nc1nnc[nH]1`, for which, in [8], the 50% effective concentration (EC50) is > 150 µM (not active).
For the compound `CCCOc1ccc(Cc2c(Cl)nc(SC)nc2OC)cc1`, the EC50 is > 150 µM (not active) in test [9] and 57.2 µM (active) in test [8].
As for `Cc1cccc(NCCC#N)c1`, the EC50 in test [5], in test [6] and in [7] was > 120 µM (not active) each time.
As to `CNc1ncncc1-c1ccccc1C(F)(F)F`, the AC50 in test [1] and in test [10] was 39.8 µM (inconclusive) each time.
`O=C(Nc1ccn(Cc2c(F)c(F)cc(F)c2F)n1)c1ccc(COc2ccc(Cl)cc2Cl)o1`: the results for the EC50 in [9], in test [8] and in test [11] were > 150 µM (not active), > 150 µM (not active) and 36.3 µM (active), respectively.
Take `COC(=O)c1sc(-c2cccs2)cc1NC(=O)/C=C/C(=O)O`: in test [3], the AC50 was 82.9 µM (active). The EC50 in [4] was 15.2 µM (active).
The like results for `CCCc1nn(C)c2c1C(c1ccncc1)C(C#N)=C(N)O2` (stereo not given) were, in that order, 9.7 µM (active) and 3.79 µM (active).
Regarding `O=C(Cc1csc(NC(=O)Nc2cccc(Cl)c2)n1)NCc1ccccn1`, the values for the EC50 in test [9], in test [8] and in test [11] were > 150 µM (not active), > 150 µM (not active) and 7.28 µM (active), respectively.
As for `CCOC(=O)c1c(NC(=O)CSc2nnc(-c3c[nH]c4ccccc34)n2CCOC)sc2c1CCCC2`, the AC50 in [3] was 20.2 µM (active). Besides, in test [4], the EC50 is > 380 µM (inactive).
For `CC(/C=C1\SC(=S)N(NC(=O)c2cccc(O)c2)C1=O)=C\c1ccccc1` the same measures were 15 µM (active) and 25.2 µM (active).
On to `CC1Cc2ccccc2N1C(=O)Cn1c(=O)cc(O)c2ccccc21` (stereo not given), for which the AC50 in test [1] is 22.4 µM (inconclusive); in [10] it was 39.8 µM (inconclusive).
As for `Cc1ccc(NC(=O)CSc2ncc(-c3ccccc3)n2C(=O)c2ccccc2)cc1`, the AC50 in test [3] was 2.56 µM (active). Further, the EC50 in [4] was 1.77 µM (active).
`Cc1ccc(S(=O)(=O)N[C@@H](CCCCN)C(=O)CCl)cc1`: the AC50 in test [3] was > 120 µM (inactive). In addition, in test [4], the EC50 is 12.6 µM (active).
For `CCCNC(=O)Nc1ccc2c(c1)nc(C)n2C`, the AC50 in test [1] is 0.562 µM (inconclusive); in test [2], 15.8 µM (inconclusive).
Take `C=C(C)CN1CC[C@]23c4c5ccc(O)c4O[C@H]2c2[nH]c4ccccc4c2C[C@@]3(O)C1C5`: the EC50 in test [5] was 13.3 µM (active); in [6] it was 13.7 µM (active); in test [7], 109 µM (active).
For the compound `c1ccc2c(c1)-c1nc3ccccc3cc1[C@H]2N1CCOCC1`, the AC50 in test [1] was 3.16 µM (inconclusive); in [12] it was 6.31 µM (inconclusive).
As to `COc1ccc(N=C(S)NC(NC(=O)CCl)C(Cl)(Cl)Cl)c([N+](=O)[O-])c1` (stereo not given), in test [3], the AC50 is 28.5 µM (active). Besides, in [4], the EC50 was 3.31 µM (active).
Regarding `COc1ccc(NC(=O)C(F)(F)F)cc1OC`, the AC50 was 22.4 µM (inconclusive) in test [1] and 39.8 µM (inconclusive) in test [12].
On to `Cc1ccc(NC(=O)c2ccc(S(=O)(=O)N3CCC(C)CC3)cc2)cc1`, for which the 50% effective concentration (EC50) in test [5] was 12 µM (active); in test [6], > 120 µM (not active); in test [7], 38.7 µM (active).
With `NNc1nnc(S)n1N`, the AC50 in [3] was > 380 µM (inactive). For the same compound, the EC50 in [4] is 86.4 µM (active).
With `COc1cccc(-c2cc(C(F)(F)F)nc(N3CCC(C)CC3)n2)c1`, the EC50 in test [9] is 13.2 µM (active); in test [8], 97.6 µM (inconclusive); in [11] it was 5.93 µM (active).
Turning to `Cc1noc(C)c1C(=O)N1CCC[C@@]2(CCN(c3ccccc3)C2)C1`, the AC50 in test [1] is 25.1 µM (inconclusive); in test [2] it was 25.1 µM (inconclusive); in test [12], 20 µM (inconclusive).
Take `COc1cc2c(cc1OC)C1(Nc3c-2c(Cc2ccccc2)nn3-c2ccccc2)C(=O)Nc2ccccc21` (stereo not given): in test [3], the AC50 is > 380 µM (inactive). Besides, the EC50 in test [4] was > 380 µM (inactive). In addition, in test [13], the CC50 is > 50 µM (active).
